Tests used:
[1] = Cytotoxicity against human MT4 cells assessed as cell growth inhibition incubated for 5 days by MTT assay; assay type: toxicity, cell-based; details: time 5 day
[2] = Selectivity index, ratio of CC50 for human MT4 cells to EC50 for antiviral activity against NNRTI resistant HIV-1 infected in human MT4 cells; assay type: toxicity, cell-based; details: read-out: Ratio CC50/EC50
[3] = tested on: Human immunodeficiency virus 1; experiment: Antiviral activity against drug-resistant HIV-1 L100I mutant infected in human MT4 cells assessed as reduction in virus-induced cytopathic effect incubated for 5 days by MTT assay; assay type: functional, organism-based; details: Human immunodeficiency virus 1, L100I mutant, MT4, 120 h
[4] = tested on: Human immunodeficiency virus 1; experiment: Antiviral activity against drug-resistant HIV-1 Y181C mutant infected in human MT4 cells assessed as reduction in virus-induced cytopathic effect incubated for 5 days by MTT assay; assay type: functional, organism-based; details: Human immunodeficiency virus 1, Y181C mutant, MT4, 120 h
[5] = tested on: Human immunodeficiency virus 1; experiment: Antiviral activity against drug-resistant HIV-1 Y188L mutant infected in human MT4 cells assessed as reduction in virus-induced cytopathic effect incubated for 5 days by MTT assay; assay type: functional, organism-based; details: Human immunodeficiency virus 1, Y188L mutant, MT4, 120 h
[6] = tested on: Human immunodeficiency virus 1; experiment: Antiviral activity against drug-resistant HIV-1 E138K mutant infected in human MT4 cells assessed as reduction in virus-induced cytopathic effect incubated for 5 days by MTT assay; assay type: functional, organism-based; details: Human immunodeficiency virus 1, E138K mutant, MT4, 120 h
[7] = biological target: Cytochrome P450 2C9 (Homo sapiens, UniProt P11712); experiment: Inhibition of CYP2C9 in human liver microsomes using […] as substrate incubated for 15 to 40 mins in presence of NADPH; assay type: ADME, Microsome
Sequence of Cytochrome P450 2C9 (P11712 whole entry): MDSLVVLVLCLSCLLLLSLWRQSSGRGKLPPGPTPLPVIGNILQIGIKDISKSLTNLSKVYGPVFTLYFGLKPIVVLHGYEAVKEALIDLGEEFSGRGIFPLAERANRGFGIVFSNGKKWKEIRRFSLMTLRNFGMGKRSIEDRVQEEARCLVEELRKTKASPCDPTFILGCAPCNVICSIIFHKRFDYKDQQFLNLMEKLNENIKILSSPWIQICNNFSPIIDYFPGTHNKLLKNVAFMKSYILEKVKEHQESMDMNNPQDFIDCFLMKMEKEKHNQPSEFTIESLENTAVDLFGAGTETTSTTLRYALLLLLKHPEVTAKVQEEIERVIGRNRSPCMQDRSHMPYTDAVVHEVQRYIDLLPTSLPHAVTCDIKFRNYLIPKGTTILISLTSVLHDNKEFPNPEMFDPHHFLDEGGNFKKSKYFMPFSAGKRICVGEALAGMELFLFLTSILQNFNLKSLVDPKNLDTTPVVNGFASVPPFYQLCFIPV

[8] = biological target: T1, Cytochrome P450 1A2 (Homo sapiens, UniProt P05177); experiment: Inhibition of CYP1A2 in human liver microsomes using phenacetin as substrate incubated for 15 to 40 mins in presence of NADPH; assay type: ADME, Microsome
T1 sequence (P05177 whole entry): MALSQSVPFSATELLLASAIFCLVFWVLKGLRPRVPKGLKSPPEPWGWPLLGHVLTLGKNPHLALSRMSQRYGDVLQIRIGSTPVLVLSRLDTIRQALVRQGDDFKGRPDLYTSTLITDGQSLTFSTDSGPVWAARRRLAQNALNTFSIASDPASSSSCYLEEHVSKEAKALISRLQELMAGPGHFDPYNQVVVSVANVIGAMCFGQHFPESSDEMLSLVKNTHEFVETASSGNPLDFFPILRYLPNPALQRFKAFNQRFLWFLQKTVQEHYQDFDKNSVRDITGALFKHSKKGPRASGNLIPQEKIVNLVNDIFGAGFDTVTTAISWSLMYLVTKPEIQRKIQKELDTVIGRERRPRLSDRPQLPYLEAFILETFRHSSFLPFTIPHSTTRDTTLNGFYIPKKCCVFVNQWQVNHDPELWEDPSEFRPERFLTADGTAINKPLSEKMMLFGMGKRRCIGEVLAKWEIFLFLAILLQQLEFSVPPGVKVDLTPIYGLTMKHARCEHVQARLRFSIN

[9] = biological target: Cytochrome P450 2C19 (Homo sapiens, UniProt P33261); experiment: Inhibition of CYP2C19 in human liver microsomes using s-mephenytoin as substrate incubated for 15 to 40 mins in presence of NADPH; assay type: ADME, Microsome
Sequence of Cytochrome P450 2C19 (P33261 whole entry): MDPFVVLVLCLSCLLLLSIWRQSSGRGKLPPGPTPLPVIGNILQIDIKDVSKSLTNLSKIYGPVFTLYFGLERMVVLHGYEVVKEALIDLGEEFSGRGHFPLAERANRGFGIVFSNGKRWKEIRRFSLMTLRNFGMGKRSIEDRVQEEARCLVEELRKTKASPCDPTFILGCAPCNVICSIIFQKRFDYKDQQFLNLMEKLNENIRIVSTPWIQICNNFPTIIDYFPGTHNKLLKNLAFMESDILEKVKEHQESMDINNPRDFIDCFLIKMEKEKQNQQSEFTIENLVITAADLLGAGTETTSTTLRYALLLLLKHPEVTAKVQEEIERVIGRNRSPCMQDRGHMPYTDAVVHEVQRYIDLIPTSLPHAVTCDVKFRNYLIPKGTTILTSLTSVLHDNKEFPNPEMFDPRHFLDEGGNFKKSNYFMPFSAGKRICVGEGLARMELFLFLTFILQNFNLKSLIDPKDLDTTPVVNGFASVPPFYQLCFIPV

[10] = biological target: Cytochrome P450 2D6 (Homo sapiens, UniProt P10635); experiment: Inhibition of CYP2D6 in human liver microsomes using dextromethorphan as substrate incubated for 15 to 40 mins in presence of NADPH; assay type: ADME, Microsome
Sequence of Cytochrome P450 2D6 (P10635 whole entry): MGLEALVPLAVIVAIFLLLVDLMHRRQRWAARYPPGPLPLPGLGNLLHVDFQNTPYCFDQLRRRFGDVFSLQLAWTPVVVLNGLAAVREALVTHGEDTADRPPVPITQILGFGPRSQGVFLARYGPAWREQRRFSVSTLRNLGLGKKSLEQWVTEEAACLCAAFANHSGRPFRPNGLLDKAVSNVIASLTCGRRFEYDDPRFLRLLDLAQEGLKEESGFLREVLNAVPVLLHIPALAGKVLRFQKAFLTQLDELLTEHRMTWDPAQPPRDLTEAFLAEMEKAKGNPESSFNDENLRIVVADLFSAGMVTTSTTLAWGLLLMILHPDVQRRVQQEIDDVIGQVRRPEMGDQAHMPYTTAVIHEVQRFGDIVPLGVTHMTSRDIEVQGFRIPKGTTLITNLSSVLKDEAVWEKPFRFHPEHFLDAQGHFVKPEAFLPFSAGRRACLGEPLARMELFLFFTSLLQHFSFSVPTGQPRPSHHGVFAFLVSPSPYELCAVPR

[11] = biological target: Cytochrome P450 3A4 (Homo sapiens, UniProt P08684); experiment: Inhibition of CYP3A4T in human liver microsomes using testosterone as substrate incubated for 15 to 40 mins in presence of NADPH; assay type: ADME, Microsome
Sequence of Cytochrome P450 3A4 (P08684 whole entry): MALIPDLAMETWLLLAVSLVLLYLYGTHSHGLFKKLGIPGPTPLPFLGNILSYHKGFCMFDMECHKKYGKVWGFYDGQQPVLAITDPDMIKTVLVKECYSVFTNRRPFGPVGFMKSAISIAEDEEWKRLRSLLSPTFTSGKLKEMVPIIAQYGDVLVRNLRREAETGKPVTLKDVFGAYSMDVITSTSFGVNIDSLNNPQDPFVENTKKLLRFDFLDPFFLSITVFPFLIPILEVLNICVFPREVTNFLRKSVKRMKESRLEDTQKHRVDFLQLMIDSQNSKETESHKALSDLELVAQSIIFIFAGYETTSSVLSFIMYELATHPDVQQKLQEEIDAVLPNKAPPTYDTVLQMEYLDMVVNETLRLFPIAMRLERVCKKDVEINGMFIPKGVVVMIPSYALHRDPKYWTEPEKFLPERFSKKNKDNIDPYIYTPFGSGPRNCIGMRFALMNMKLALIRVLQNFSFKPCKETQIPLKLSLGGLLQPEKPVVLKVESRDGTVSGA

[12] = Half life in Sprague-Dawley rat at 1 mg/kg,iv measured upto 24 hrs by LC-MS/MS analysis; assay type: ADME, organism-based; details: in vivo
[13] = Tmax in Sprague-Dawley rat at 10 mg/kg,po measured upto 24 hrs by LC-MS/MS analysis; assay type: ADME, organism-based; details: in vivo
[14] = Tmax in Sprague-Dawley rat at 1 mg/kg,iv measured upto 24 hrs by LC-MS/MS analysis; assay type: ADME, organism-based; details: in vivo
[15] = Cmax in Sprague-Dawley rat at 10 mg/kg,po measured upto 24 hrs by LC-MS/MS analysis; assay type: ADME, organism-based; set-up: dose 10 mg/kg, time < 24 hrs, route po; details: in vivo
[16] = Cmax in Sprague-Dawley rat at 1 mg/kg,iv measured upto 24 hrs by LC-MS/MS analysis; assay type: ADME, organism-based; set-up: dose 1 mg/kg, time < 24 hrs, route iv; details: in vivo
[17] = C0 in Sprague-Dawley rat at 1 mg/kg,iv measured upto 24 hrs by LC-MS/MS analysis; assay type: ADME, organism-based; details: in vivo
[18] = AUC (0 to t) in Sprague-Dawley rat at 1 mg/kg,iv measured upto 24 hrs by LC-MS/MS analysis; assay type: ADME, organism-based; set-up: dose 1 mg/kg, time < 24 hrs, route iv; details: in vivo
[19] = AUC (0 to infinity) in Sprague-Dawley rat at 10 mg/kg,po measured upto 24 hrs by LC-MS/MS analysis; assay type: ADME, organism-based; set-up: dose 10 mg/kg, time < 24 hrs, route po; details: in vivo
[20] = AUC (0 to infinity) in Sprague-Dawley rat at 1 mg/kg,iv measured upto 24 hrs by LC-MS/MS analysis; assay type: ADME, organism-based; set-up: dose 1 mg/kg, time < 24 hrs, route iv; details: in vivo
[21] = Apparent volume of distribution in Sprague-Dawley rat at 1 mg/kg,iv measured upto 24 hrs by LC-MS/MS analysis; assay type: ADME, organism-based; details: in vivo, read-out: Vz
[22] = Clearance in Sprague-Dawley rat at 1 mg/kg,iv measured upto 24 hrs by LC-MS/MS analysis; assay type: ADME, organism-based; details: in vivo
[23] = MRT(0 to t) in Sprague-Dawley rat at 1 mg/kg,iv measured upto 24 hrs by LC-MS/MS analysis; assay type: ADME, organism-based; details: in vivo
[24] = MRT (0 to infinity) in Sprague-Dawley rat at 10 mg/kg,po measured upto 24 hrs by LC-MS/MS analysis; assay type: ADME, organism-based; details: in vivo
[25] = Acute toxicity in mouse assessed as mouse death at 1 g/Kg,IG monitored for 2 weeks; details: in vivo, po, 1000 mg/kg, 336 h
[26] = Acute toxicity in healthy mouse assessed as brain damage at 1 g/Kg,IG monitored for 2 weeks by HE staining based assay; assay type: tissue-based; details: in vivo, po, 1000 mg/kg, 336 h
[27] = Acute toxicity in healthy mouse assessed as spleen damage at 1 g/Kg,IG monitored for 2 weeks by HE staining based assay; assay type: tissue-based; details: in vivo, po, 1000 mg/kg, 336 h
[28] = Acute toxicity in healthy mouse assessed as lung damage at 1 g/Kg,IG monitored for 2 weeks by HE staining based assay; assay type: tissue-based; details: in vivo, po, 1000 mg/kg, 336 h
[29] = Acute toxicity in healthy mouse assessed as kidney damage at 1 g/Kg,IG monitored for 2 weeks by HE staining based assay; assay type: tissue-based; details: in vivo, po, 1000 mg/kg, 336 h
[30] = Acute toxicity in mouse assessed as behavioral abnormalities at 1 g/Kg,IG monitored for 2 weeks; details: in vivo, po, 1000 mg/kg, 336 h
[31] = Fold resistance, ratio of EC50 for antiviral activity against drug-resistant HIV-1 L100I mutant infected in human MT4 cells to EC50 for antiviral activity against […] HIV-1 infected in human MT4 cells; assay type: functional
[32] = Fold resistance, ratio of EC50 for antiviral activity against drug-resistant HIV-1 Y188L mutant infected in human MT4 cells to EC50 for antiviral activity against […] HIV-1 infected in human MT4 cells; assay type: functional
[33] = Fold resistance, ratio of EC50 for antiviral activity against drug-resistant HIV-1 E138K mutant infected in human MT4 cells to EC50 for antiviral activity against […] HIV-1 infected in human MT4 cells; assay type: functional

Q: Which CC50 at 120 h [1] does the source give for Cc1c(C(C#N)c2c(F)cccc2F)nc(SC(C)C)[nH]c1=O (stereo not drawn) here?
A: 137 µM

Q: And the selectivity ratio [2]?
A: 6560

Q: And the EC50 [3]?
A: 1.03 µM

Q: And the EC50 [4]?
A: 0.75 µM

Q: What about the EC50 [5] of the same molecule?
A: 69 µM

Q: And the EC50 [6]?
A: 0.05 µM

Q: And the IC50 [7]?
A: 40.4 µM

Q: What about the IC50 [8] of the same molecule?
A: > 50 µM

Q: And the IC50 [9]?
A: 35.3 µM

Q: What about the IC50 [10] of the same molecule?
A: > 50 µM

Q: What about the IC50 [11] of the same molecule?
A: > 50 µM

Q: What about the half-life [12] of the same molecule?
A: 4.07 h

Q: And the Tmax [13]?
A: 3.5 h

Q: What about the Tmax [14] of the same molecule?
A: 4.8 min

Q: What about the Cmax [15] of the same molecule?
A: 15300 ng/mL

Q: And the Cmax [16]?
A: 7620 ng/mL

Q: And the C0 at 24 h [17]?
A: 9310 ng/mL

Q: And the AUC(0-t) at 24 h [18]?
A: 8280 ng·h/mL

Q: And the AUC(0-inf) [19]?
A: 136000 ng·h/mL

Q: What about the AUC(0-inf) [20] of the same molecule?
A: 8320 ng·h/mL

Q: And the Vd [21]?
A: 0.764 L/kg

Q: And the clearance [22]?
A: 2.13 mL/min/kg

Q: And the MRT last at 24 h [23]?
A: 2.25 h

Q: And the MRT inf [24]?
A: 6.82 h

Q: And the Activity [25]?
A: Non-Toxic

Q: What about the Activity [26] of the same molecule?
A: Non-Toxic

Q: What about the Activity [27] of the same molecule?
A: Non-Toxic

Q: And the Activity [28]?
A: Non-Toxic

Q: And the Activity [29]?
A: Non-Toxic

Q: What about the Activity [30] of the same molecule?
A: Non-Toxic

Q: What about the “Ratio EC50” value [31] of the same molecule?
A: 50

Q: And the “Ratio EC50” value [32]?
A: 3319

Q: What about the “Ratio EC50” value [33] of the same molecule?
A: 2
